Key:
Format in all cases: cell-based
[1] = test system: human monocyte-derived iDC; assay: Uptake by immature dendritic cells, confocal microscopy; conditions: two minutes incubation at 37° C.; labeled Compound 1 50 μg/ml, FITC-dextran 1 mg/ml
Protocol: Briefly, Oregon-green (Molecular Probes, Eugene, Oreg.)-conjugated Lipid II is included in an MtgA polymerization reaction at a ratio of 1:4 with unlabeled Lipid II to produce a 25% Oregon-green labeled polymer. The polymeric material is purified and treated as previously described. […] After incubation, extracellular probe is removed by washing the cells four times in ice cold complete DC medium (Example 5). Washed cells are then incubated at 37° C. and staining is stopped at two-minute intervals by washing in 1% paraformaldehyde fix diluted in flow wash solution (which also contains the metabolic poison sodium azide; protocol described in Example 5). Glass slide samples are prepared at each time interval and sealed with clear nail polish. Samples are stored at −20° C. and protected from light until analysis on a Radiance 2100 confocal microscope (BioRad Laboratories, Hercules, Calif.).

[2] = test system: human monocyte-derived dendritic cells; assay: Kinetics of uptake by immature dendritic cells, flow cytometry; conditions: 0° C., cells metabolically inactive
Protocol: In these experiments, human monocyte-derived dendritic cells are prepared as described in Example 5. Dendritic cells are resuspended at 5×10^5 cells/sample and incubated on ice at […] At 0, 2, 10, 20, 30, 40, and 50 minutes after the start of incubation, uptake is stopped by washing the cells with four washes of ice cold flow wash buffer (Example 5). The washed cells are fixed in paraformaldehyde also as described in Example 5. Stained, fixed cells are stored at 4° C. protected from light until analysis using a FC500 flow cytometer (Beckman Coulter, Miami, Fla.).

[3] = target: T1, human TLR-2 (Homo sapiens, UniProt O60603); conditions: 1 ng/ml, positive stimulation control
T1 construct: expressed in transfected cells; host or cells: HEK293 cells (ATCC), transiently transfected with Fugene6
T1 sequence (O60603 21-784): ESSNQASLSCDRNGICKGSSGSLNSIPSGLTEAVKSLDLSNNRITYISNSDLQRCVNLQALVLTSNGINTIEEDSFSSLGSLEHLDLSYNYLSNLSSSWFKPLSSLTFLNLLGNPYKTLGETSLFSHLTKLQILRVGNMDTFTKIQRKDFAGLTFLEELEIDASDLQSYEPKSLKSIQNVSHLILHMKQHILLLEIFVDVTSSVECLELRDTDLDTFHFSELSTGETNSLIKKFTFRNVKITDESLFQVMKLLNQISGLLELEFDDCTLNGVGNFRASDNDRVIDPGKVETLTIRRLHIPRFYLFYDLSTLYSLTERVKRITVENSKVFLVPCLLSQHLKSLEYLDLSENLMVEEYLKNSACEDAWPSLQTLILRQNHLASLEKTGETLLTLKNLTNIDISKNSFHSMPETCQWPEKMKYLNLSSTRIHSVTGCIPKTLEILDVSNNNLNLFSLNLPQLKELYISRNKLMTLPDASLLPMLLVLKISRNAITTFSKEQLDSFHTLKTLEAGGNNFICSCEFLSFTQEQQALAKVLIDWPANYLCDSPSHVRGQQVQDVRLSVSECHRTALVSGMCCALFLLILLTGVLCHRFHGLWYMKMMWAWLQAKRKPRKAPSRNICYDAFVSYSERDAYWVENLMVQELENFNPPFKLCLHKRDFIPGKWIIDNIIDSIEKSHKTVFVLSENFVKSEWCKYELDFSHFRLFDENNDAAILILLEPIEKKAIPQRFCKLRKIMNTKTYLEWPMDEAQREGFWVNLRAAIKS
From the text: These experiments involve transfecting HEK293 cells (American Type Culture Collection, Manassas, Va.) with two plasmid DNAs. The first plasmid, pcDNA3.1/Hygro (Invitrogen), contains the human TLR-2 gene. The second plasmid, pNF-κB-luc (Stratagene, La Jolla, Calif.), encodes the NF-κB gene linked to a luciferase reporter gene whose product can be followed in vitro as a direct measure of NF-κB-activation. To prepare the DNA for transfection into the cells, Fugene6 (Roche, Basel Switzerland) transfecting reagent is diluted 1:6 in OPTI-MEM (Invitrogen, Carlsbad, Calif.) growth medium. Next, 75 ng of pNF-κB-luc and 300 ng of pcDNA3.1/Hygro DNA are added to the diluted Fugene6 and the mixture is incubated at 37° C. for 30 minutes. HEK293 cells at a concentration of 10^6 cells/ml are added to the DNA/Fugene6 mixture. […] The amount of luciferase activity resulting from incubation with the compounds is evaluated by removing the growth medium from the cells and replacing it with 100 μl of RLB lysis solution (Promega, Madison, Wis.). […] The luciferase activity of each cell culture is determined in a 25 μl aliquot of cell lysate in a Victor Luminometer (Perkin Elmer Life Sciences, Shelton, Conn.) according to the manufacturer's instructions. […]

Row | Substance | intracellular localization in iDCs (confocal images) [1] | uptake by iDCs over time (mean fluorescence intensity) [2] | increase in luciferase activity compared with unstimulated cultures [3]
1 | FITC-Dextran | Localization of polymer in endocytic vacuoles | uptake is inhibited | 
2 | TNFα |  |  | 22.5 fold
